In this experiment the target is T1, HSD17B13 enzyme (Homo sapiens, UniProt Q7Z5P4).
T1 construct: His; made in house; host or cells: E. coli
T1 sequence (Q7Z5P4 20-300): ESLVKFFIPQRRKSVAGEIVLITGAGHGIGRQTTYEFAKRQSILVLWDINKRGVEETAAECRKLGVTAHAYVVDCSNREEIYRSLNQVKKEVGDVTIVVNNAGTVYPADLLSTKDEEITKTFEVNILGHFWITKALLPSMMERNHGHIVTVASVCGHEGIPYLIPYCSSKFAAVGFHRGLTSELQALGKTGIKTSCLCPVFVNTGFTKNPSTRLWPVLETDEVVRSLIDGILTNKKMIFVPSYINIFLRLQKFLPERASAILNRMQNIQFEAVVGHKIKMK
The experiment in a line: NADH detection assay (fluorescence based LTB3 assay) for HSD17B13 activity. The class given is biochemical. Conditions: substrate 25 μM LTB3, 3 mM NAD+, 125 nM HSD17B13 enzyme, 1 hour at 26.5° C. The protocol: Example A: NADH Detection Assay for Evaluation of HSD17ß13 Activity and Identification of Inhibitors
The fluorescence based Leukotriene B3 (LTB3) assay monitors the fluorescence of NADH, which is generated from NAD+ during the dehydrogenation of the substrate LTB3. The reactions were performed in a 384-well plates (Greiner; #655076) in a 20 μl reaction volume containing the following reagents (final concentrations): 25 μM LTB3 (Cayman; #20109); 3 mM NAD+ (Sigma; #N0623); 125 nM HSD17B13 enzyme (in-house; E. coli expressed His-tagged, purified, soluble protein); […] potassium phosphate buffer, pH 7.4; and 1% DMSO. Reactions were initiated by co-addition of NAD+ and enzyme, and monitored for 1 hour at 26.5° C. Generation of NADH was measured as the fluorescence signal (Excitation at 340 nm and Emission at 445 nm) at 1 hour minus the baseline fluorescence at t=0. Fluorescence signals in the absence of LTB3 (negative control values), were subtracted from all values so that the results reflected substrate-dependent production of NADH. NADH standards were included to allow the conversion of relative fluorescence units into rates of enzyme activity. Enzyme activity in the presence of test compounds was expressed as a percentage of the uninhibited enzyme activity, and plotted versus inhibitor concentration. Non-linear regression was performed using a four-parameter logistic model and GraphPad Prism software (GraphPad Software, La Jolla, CA). Ten concentrations of inhibitor were tested (in the range of 30 μM-2.5 nM), and two independent assessments were performed at each concentration.

For 30 compounds, IC50 results are on record in US12643858B2 (Inipharm, Inc., priority 2020, dated 2026).

Each structure is given as a SMILES string. pIC50: −log10 of the molar value.

For orientation: pIC50 means the IC50 on a negative log10 scale, so that one unit is a factor of ten. A high value points to a small IC50.

As for `Oc1cc(Oc2cccc(-c3cccc(F)c3O)n2)ccc1F` [Example 38, 2-fluoro-5-((6-(3-fluoro-2-hydroxyphenyl)pyridin-2-yl)oxy)phenol], the pIC50 was less than 4.52. Compound `Oc1cc(Oc2cccc(-c3ccc(O)c(F)c3)n2)ccc1F` [Example 39, 2-fluoro-4-(6-(4-fluoro-3-hydroxyphenoxy)pyridin-2-yl)phenol] showed a negative-log IC50 (pIC50) not below 5.30. The compound `Oc1cc(Oc2cccc(-c3ccc(F)c(O)c3)n2)ccc1F` [Example 40, 2-fluoro-5-(6-(4-fluoro-3-hydroxyphenoxy)pyridin-2-yl)phenol] had a pIC50 not below 5.30. Under `O=c1[nH]c2ccc(Oc3cccc(-c4cccc(O)c4F)n3)cc2[nH]1` [Example 41, 5-((6-(2-fluoro-3-hydroxyphenyl)pyridin-2-yl)oxy)-1,3-dihydro-2H-benzo[d]imidazol-2-one] stands 5.00 to 5.30. Under `CC(=O)N1CCN(S(=O)(=O)c2cccc(-c3cccc(Oc4ccc(F)c(O)c4)n3)c2)CC1` [Example 42, 1-(4-{3-[6-(4-fluoro-3-hydroxyphenoxy)pyridin-2-yl]benzenesulfonyl}piperazin-1-yl)ethan-1-one] stands less than 4.52; under `CN1CCN(S(=O)(=O)c2cccc(-c3cccc(Oc4ccc(F)c(O)c4)n3)c2)CC1` [Example 43, 2-fluoro-5-((6-(3-((4-methylpiperazin-1-yl)sulfonyl)phenyl)pyridin-2-yl)oxy)phenol], 5.00 to 5.30; under `O=S(=O)(c1cccc(-c2cccc(Oc3ccc(F)c(O)c3)n2)c1)N1CCOCC1` [Example 44, 2-fluoro-5-((6-(3-(morpholinosulfonyl)phenyl)pyridin-2-yl)oxy)phenol], not below 5.30. Take `O=S(=O)(Nc1ccccc1)c1cccc(-c2cccc(Oc3ccc(F)c(O)c3)n2)c1` [Example 45, 3-(6-(4-fluoro-3-hydroxyphenoxy)pyridin-2-yl)-N-phenylbenzene sulfonamide]: the pIC50 is not below 5.30. `CC(=O)N1CCOc2cc(-c3cccc(Oc4ccc(F)c(O)c4)n3)ccc21` [Example 46, 1-{7-[6-(4-fluoro-3-hydroxyphenoxy)pyridin-2-yl]-3,4-dihydro-2H-1,4-benzoxazin-4-yl}ethan-1-one] had a pIC50 not below 5.30. Compound `Nc1nc2cc(-c3cccc(Oc4ccc(F)c(O)c4)n3)ccc2s1` [Example 47, 5-((6-(2-aminobenzo[d]thiazol-5-yl)pyridin-2-yl)oxy)-2-fluorophenol] gave a pIC50 not below 5.30. Under `O=S(=O)(c1cccc(-c2cccc(Oc3ccc(F)c(O)c3)n2)c1)N1CCNCC1` [Example 48, 2-fluoro-5-((6-(3-(piperazin-1-ylsulfonyl)phenyl)pyridin-2-yl)oxy) phenol] stands less than 4.52; under `NS(=O)(=O)c1cccc(-c2cccc(Oc3ccc(F)c(O)c3)n2)c1` [Example 49, 3-[6-(4-fluoro-3-hydroxyphenoxy)pyridin-2-yl]benzene-1-sulfonamide], 5.00 to 5.30; under `Oc1cc(Oc2cccc(-c3ccc4scnc4c3)n2)ccc1F` [Example 50, 5-{[6-(1,3-benzothiazol-5-yl)pyridin-2-yl]oxy}-2-fluorophenol], not below 5.30. Under `O=C1COc2cc(-c3cccc(Oc4ccc(F)c(O)c4)n3)ccc2N1` [Example 51, 7-(6-(4-fluoro-3-hydroxyphenoxy)pyridin-2-yl)-2H-benzo[b][1,4]oxazin-3(4H)-one] stands less than 4.52; under `COc1cccc(-c2cccc(Oc3ccc(F)c(C(F)F)c3)n2)c1F` [Example 52, 2-[3-(difluoromethyl)-4-fluorophenoxy]-6-(2-fluoro-3-methoxyphenyl) pyridine], less than 4.52.

Regarding `CN1C(=O)COc2cc(-c3cccc(Oc4ccc(F)c(O)c4)n3)ccc21` [Example 53, 7-(6-(4-fluoro-3-hydroxyphenoxy)pyridin-2-yl)-4-methyl-2H-benzo[b][1,4]oxazin-3(4H)-one], the pIC50 is not below 5.30. In the case of `CNc1cccc(-c2cccc(Oc3ccc(F)c(O)c3)n2)c1` [Example 54, 2-fluoro-5-({6-[3-(methylamino)phenyl]pyridin-2-yl}oxy)phenol] it was not below 5.30; in that of `O=S(=O)(c1ccc(F)c(O)c1)c1cccc(-c2cccc(O)c2F)n1` [Example 55, 2-fluoro-3-[6-(4-fluoro-3-hydroxybenzenesulfonyl)pyridin-2-yl]phenol], 5.00 to 5.30; in that of `Oc1cccc(-c2cccc(Oc3ccc4c(c3)NCCO4)n2)c1F` [Example 56, 3-[6-(3,4-dihydro-2H-1,4-benzoxazin-6-yloxy)pyridin-2-yl]-2-fluorophenol], less than 4.52. `CS(=O)(=O)Nc1cc(Oc2cccc(-c3cccc(O)c3F)n2)ccc1F` [Example 57, N-(2-fluoro-5-{[6-(2-fluoro-3-hydroxyphenyl)pyridin-2-yl]oxy}phenyl)methane-sulfonamide] gave a pIC50 of less than 4.52. Under `O=c1[nH]c2ccc(-c3cccc(Oc4ccc(F)c(O)c4)n3)cc2[nH]1` [Example 58, 5-(6-(4-fluoro-3-hydroxyphenoxy)pyridin-2-yl)-1,3-dihydro-2H-benzo[d]imidazol-2-one] stands not below 5.30.

The compound `Oc1cc(Oc2cccc(-c3ccc4c(c3)NCCO4)n2)ccc1F` [Example 59, 5-((6-(3,4-dihydro-2H-benzo[b][1,4]oxazin-6-yl)pyridin-2-yl)oxy)-2-fluorophenol] had a negative logarithm of the IC50 (pIC50) not below 5.30. Under `COc1cc(Oc2cccc(-c3ccc4c(c3)NS(=O)(=O)C4)n2)ccc1F` [Example 60, 6-(6-(4-fluoro-3-methoxyphenoxy)pyridin-2-yl)-1,3-dihydrobenzo[c]isothiazole 2,2-dioxide] stands less than 4.52.

Consider `CC(=O)Nc1nc2cc(-c3cccc(Oc4ccc(F)c(O)c4)n3)ccc2s1` [Example 61, N-(5-(6-(4-fluoro-3-hydroxyphenoxy)pyridin-2-yl)benzo[d]thiazol-2-yl) acetamide], for which the pIC50 was less than 4.52. Under `N#Cc1ccc(Oc2ccc(F)c(O)c2)nc1N1CCOCC1` [Example 62, 6-(4-fluoro-3-hydroxyphenoxy)-2-(morpholin-4-yl)pyridine-3-carbonitrile] stands less than 4.52. In the case of `O=C(NC1CC1)c1cccc(-c2cccc(Oc3ccc(F)c(O)c3)n2)c1` [Example 63, N-cyclopropyl-3-(6-(4-fluoro-3-hydroxyphenoxy)pyridin-2-yl)benzamide] it was 4.52 to 5.00; in that of `Oc1cc(Oc2cccc(-c3ccc(OC(F)(F)F)c(Cl)c3)n2)ccc1F` [Example 66, 5-((6-(3-chloro-4-(trifluoromethoxy)phenyl)pyridin-2-yl)oxy)-2-fluorophenol], not below 5.30; in that of `Oc1cc(Oc2cccc(-c3ccc4c(c3)OCO4)n2)ccc1F` [Example 67, 5-((6-(benzo[d][1,3]dioxol-5-yl)pyridin-2-yl)oxy)-2-fluorophenol], not below 5.30. With `O=C(O)c1cccc(-c2cccc(Oc3ccc(F)c(O)c3)n2)c1` [Example 68, 3-(6-(4-fluoro-3-hydroxyphenoxy)pyridin-2-yl)benzoic acid], the negative-log IC50 (pIC50) was less than 4.52. In the case of `CNC(=O)c1cc(Oc2ccc(F)c(O)c2)nc(-c2cccc(O)c2F)c1` [Example 69, 2-(4-fluoro-3-hydroxyphenoxy)-6-(2-fluoro-3-hydroxyphenyl)-N-methylpyridine-4-carboxamide] it was 4.52 to 5.00.
